# Assay results as given in US20230234936A1, “COMPOUND FOR TARGETING AND DEGRADING PROTEIN, AND PREPARATION METHOD THEREFOR AND USE THEREOF” (SHANGHAI LEADINGTAC PHARMACEUTICAL CO., LTD., priority 2020, published 2023).
# Key:
# IRAK4 kinase = molecular target: T1, IRAK4 kinase (Homo sapiens, UniProt Q9NWZ3); test: IRAK4 kinase activity test (KinEASE-STK S1 HTRF kit); assay type: biochemical; details: 2.5 nM kinase, 1 μM biotinylated polypeptide substrate, 7 μM ATP, 37° C. 120 min
# T1 sequence (Q9NWZ3 1-460): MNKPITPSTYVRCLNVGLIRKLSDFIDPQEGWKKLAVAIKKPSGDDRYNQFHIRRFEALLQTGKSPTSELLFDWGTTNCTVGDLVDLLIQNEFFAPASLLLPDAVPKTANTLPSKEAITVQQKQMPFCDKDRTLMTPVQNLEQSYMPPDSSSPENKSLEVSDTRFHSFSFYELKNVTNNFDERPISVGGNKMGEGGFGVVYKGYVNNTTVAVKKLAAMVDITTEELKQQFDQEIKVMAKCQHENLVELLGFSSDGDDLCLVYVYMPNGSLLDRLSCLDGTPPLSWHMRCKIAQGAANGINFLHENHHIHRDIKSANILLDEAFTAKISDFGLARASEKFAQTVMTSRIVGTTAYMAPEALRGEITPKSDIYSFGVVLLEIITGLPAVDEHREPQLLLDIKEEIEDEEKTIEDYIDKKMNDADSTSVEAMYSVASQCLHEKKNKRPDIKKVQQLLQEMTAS
# In short: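 Compound in DMSO, serially diluted to 10000–0.038 nM final, incubated with 2.5 nM kinase, 1 μM biotinylated peptide substrate and 7 μM ATP at 37° C for 120 min. Eu-anti-phospho-Ser/Thr antibody plus streptavidin-XL665 stopped the reaction (1 h RT). HTRF 665/620 nm ratio gave % inhibition versus control; IC50 from nonlinear log-concentration fit.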
# [1] = molecular target: T2, IRAK4 protein in THP-1 cells (Homo sapiens, UniProt Q9NWZ3); test: Degradation of IRAK4 in THP-1 cells (Western blot); assay type: cell-based; details: 24 hours, compound 1-3000 nM
# T2 construct: endogenous in cells; host or cells: THP-1
# T2 sequence (Q9NWZ3 1-460): T1 sequence (Q9NWZ3 1-460)
# In short: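 THP-1 cells (5×10^5/well) treated 24 h with compound at 1–3000 nM final. IRAK4 in lysates quantified by Western blot, normalized to internal reference and compared with control to give degradation rate; DC50 and Dmax from nonlinear fit of log concentration.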
IC50 (IRAK4 kinase) [nM],DC50 [1] [nM],Dmax [1] [%],SMILES
15.2,40.6,,"COc1cc2nn(C3CCN(CC4CCN(CCOc5ccc6c(c5)C(=O)N(C5CCC(=O)NC5=O)C6=O)CC4)CC3)cc2cc1NC(=O)c1cccc(C(F)(F)F)n1 (centres unmarked) [Control group 2, N-(2-(1-((1-(2-((2-(2,6-dioxopiperidin-3-yl)-1,3-dioxoisoindol-5-yl)oxy)ethyl)piperidin-4-yl)methyl)piperidin-4-yl)-6-methoxy-2H-indazol-5-yl)-6-(trifluoromethyl) pyridinecarboxamide, reference compound]"
16.2,19.8,75.3,"CN(CC1CCN(c2cccc3c2C(=O)N(C2CCC(=O)NC2=O)C3=O)CC1)C[C@H]1CC[C@H](n2cc3cc(NC(=O)c4cccc(C(F)(F)F)n4)c(C(C)(C)O)cc3n2)CC1 (some centres unmarked) [Control group 3, N-(2-((1r,4r)-4-((((1-(2-(2,6-dioxopiperidin-3-yl)-1,3-dioxoisoindolin-4-yl)piperidin-4-yl)methyl) (methyl)amino)methyl)cyclohexyl)-6-(2-hydroxyprop-2-yl)-2H-indazol-5-yl)-6-(trifluoromethyl) pyridinecarboxamide, reference compound]"
14,2.6,97.1,"CC(C)(O)c1cc2nn(C3CCN(CC4CCC5(CC4)CCN(C(=O)c4ccc(Cl)c(N6CCC(=O)NC6=O)c4)CC5)CC3)cc2cc1NC(=O)c1cccc(C(F)(F)F)n1 [Example 31, N-(2-(1-((3-(4-chloro-3-(2,4-dioxotetrahydro-pyrimidin-1 (2H)-yl)benzoyl)-3-azaspiro [5.5]undec-9-yl)methyl)piperdin-4-yl)-6-(2-hydroxyprop-2-yl)-2H-indazol-5-yl)-6-(trifluoro-methyl) pyridinecarbox-amide]"
